Data as given in patent publication US8008288B2, “Anti-inflammatory A-aminocyclolactam compounds” (Cambridge Enterprise Limited, priority 2004, dated 2011).

Assays:
[1] = tested on: MCP-1 induced leukocyte migration (THP-1 cells); experiment: Inhibition of chemokine (MCP-1) induced leukocyte migration in vitro, transwell assay; format: cell-based, human
Experimental: In principle, this assay consists of two chambers separated by a porous membrane. The chemoattractant is placed in the lower compartment and the cells are placed in the upper compartment. After incubation for a period at 37° C. the cells move towards the chemoattractant, and the number of cells in the lower compartment is proportional to the chemoattractant activity (relative to a series of controls).
This assay can be used with a range of different leukocyte populations. For example, freshly prepared human peripheral blood leukocytes may used. Alternatively, leukocyte subsets may be prepared, including polymorphonuclear cells or lymphocytes or monocytes using methods well known to those skilled in the art such as density gradient centrifugation or magnetic bead separations. Alternatively; immortal cell lines which have been extensively validated as models of human peripheral blood leukocytes may be used, including, but not limited to THP-1 cells as a model of monocytes or Jurkat cells as model of naïve T cells.
The THP-1 cell line (European Cell culture Collection) were used as the leukocyte cell population.
The following procedure is used for testing the invention compounds for MCP-1 induced leukocyte migration:
First, the cell suspension to be placed in the upper compartment is prepared. […]

[2] = format: in vitro ADME, human
Source text: As an approach to identifying such stable analogs, various derivatives of (S)-3-(undec-10-enoyl)-aminoglutarimide have been tested for their stability in serum.

[3] = cited from earlier work

Question: What does the source list for `C=CCCCCCCCCC(=O)[C@@H]1CCCNC1=O` [(S)-3-(undec-10-enoyl)-tetrahydropyridin-2-one]?
Answer: potency compared with the parental molecule ([1]; parental molecule (S)-3-(undec-10-enoyl)-aminoglutarimide): considerably reduced potency; stability in human serum ([2]; human, 7 days): at least 7 days

Question: Which “potency in vitro as broad-spectrum chemokine inhibitor (BSCI)” value ([1]; in vitro) does the source give for `O=C1NCCCC[C@@H]1NC(=O)C12CC3CC(CC(C3)C1)C2` [(S)-3-(adamantane-1-carbonylamino)azepin-2-one] here?
Answer: sub-nanomolar

Question: With “c(DCys-DGln-DIle-DTrp-DLys-DGln-DLys-DPro-DAsp-DLeu-DCys)-NH2 [NR58-3.14.3]” as the compound, how does the “half-life period of clearance from blood plasma” value ([3]; after intravenous injection) read?
Answer: less than 30 minutes

Question: What about the oral bioavailability ([3]; in vivo, po) of the same compound?
Answer: not orally bioavailable

Question: With `C=CCCCCCCCCC(=O)N[C@H]1CCC(=O)NC1=O` [NR58,4, (S)-3-(undec-10-enoyl)-aminoglutarimide] as the compound, how does the “enzymatic ring opening of the aminoglutarimide ring in serum” value [2] read?
Answer: susceptible to enzymatic ring opening in serum
